Patent US20250230193A1, “CYCLIC COMPOUND HAVING SELECTIVE KRAS INHIBITORY EFFECT ON HRAS AND NRAS” (CHUGAI SEIYAKU KABUSHIKI KAISHA, priority 2022, published 2025)
Where a SMILES comes first, the peptide text is derived from it. Bridges are numbered along the chain shown (N, C = ends). [ ]: non-standard residue; d: D form. The star is where a group is joined. hPhe(3-Cl-4-CF3) = N[C@@H](CCc1ccc(C(F)(F)F)c(Cl)c1)C(=O)O; NPrPhe(4-CF3) = CCCN[C@@H](Cc1ccc(C(F)(F)F)cc1)C(=O)O; NMeGly(cPent) = CN[C@H](C(=O)O)C1CCCC1; Pro(4,4-Me2) = CC1(C)CN[C@H](C(=O)O)C1; NMeD = CN[C@@H](CC(=O)O)C(=O)O; NMeL = CN[C@@H](CC(C)C)C(=O)O; Morpholide = C1CN(*)CCO1; NMeA = CN[C@@H](C)C(=O)O; Ac5c = NC1(C(=O)O)CCCC1; Aze = O=C(O)[C@@H]1CCN1; X25 = CC1(C)CCN(*)C1; Sar = CNCC(=O)O

How the values were obtained:
[1] = target: GDP-bound NRAS wild-type protein (Homo sapiens, UniProt P01111); assay: Binding to NRAS by surface plasmon resonance (SPR), Single Cycle Kinetics; details: SPR; for NRAS/KRAS (ratio of KD value for NRAS to KD value for KRAS): GDP-bound NRAS wild-type vs GDP-bound KRAS wild-type
[2] = target: GDP-bound HRAS wild-type protein (Homo sapiens, UniProt P01112); assay: Binding to HRAS by surface plasmon resonance (SPR), Single Cycle Kinetics; details: SPR; for HRAS/KRAS (ratio of KD value for HRAS to KD value for KRAS): GDP-bound HRAS wild-type vs GDP-bound KRAS wild-type
[3] = KD ratio NRAS/KRAS, GDP-bound wild-type proteins
[4] = KD ratio HRAS/KRAS, GDP-bound wild-type proteins

Chain of GDP-bound NRAS wild-type protein (P01111 whole entry): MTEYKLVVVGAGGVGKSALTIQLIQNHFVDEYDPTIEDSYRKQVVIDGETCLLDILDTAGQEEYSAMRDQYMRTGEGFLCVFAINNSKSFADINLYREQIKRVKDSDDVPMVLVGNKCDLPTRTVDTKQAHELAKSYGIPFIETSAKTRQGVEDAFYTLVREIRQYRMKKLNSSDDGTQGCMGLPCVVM
Chain of GDP-bound HRAS wild-type protein (P01112 whole entry): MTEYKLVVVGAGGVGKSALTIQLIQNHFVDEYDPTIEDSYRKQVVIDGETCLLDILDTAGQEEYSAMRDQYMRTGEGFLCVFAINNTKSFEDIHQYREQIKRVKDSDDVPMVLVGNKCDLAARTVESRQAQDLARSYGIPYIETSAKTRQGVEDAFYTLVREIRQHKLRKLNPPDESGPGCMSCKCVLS

| Structure (SMILES) | NRAS/KRAS (ratio of KD value with respect to GDP-bound NRAS wild-type protein to KD value with respect to KRAS) [1, 3] | HRAS/KRAS (ratio of KD value with respect to GDP-bound HRAS wild-type protein to KD value with respect to KRAS) [2, 4] | NRAS/KRAS (ratio of KD value for NRAS to KD value for KRAS) [1] | HRAS/KRAS (ratio of KD value for HRAS to KD value for KRAS) [2] | also measured |
| --- | --- | --- | --- | --- | --- |
| CCC[C@H]1C(=O)N[C@@H]([C@@H](C)CC)C(=O)N2CCC[C@H]2C(=O)N(C)[C@H]2C/C=C\CCN(C2=O)[C@@H](Cc2ccc(C(F)(F)F)cc2)C(=O)N(C)CC(=O)N[C@@H](CCc2ccc(C(F)(F)F)c(OC)c2)C(=O)N2C[C@H](OCC)C[C@H]2C(=O)N(C)C2(CCC2)C(=O)N(C)[C@@H](C2CCCC2)C(=O)N(C)[C@H](C(=O)N2CCCC2)CC(=O)N1C [PP3101] | A (a compound having 10 or more and less than 20 is denoted as A) | A (a compound having 10 or more and less than 20 is denoted as A) | – | – | – |
| CCCN1C(=O)[C@@H]2CCN2C(=O)[C@H](C)N(C)C(=O)[C@H]([C@@H](C)CC)NC(=O)[C@H](CC(C)C)N(C)C(=O)C[C@@H](C(=O)N2CCOCC2)N(C)C(=O)[C@H](C2CCCC2)N(C)C(=O)C2(CCCC2)NC(=O)[C@@H]2CC(C)(C)CN2C(=O)[C@H](CCc2ccc(C(F)(F)F)c(Cl)c2)NC(=O)CN(C)C(=O)[C@@H]1Cc1ccc(C(F)(F)F)cc1 [PP0454] ([NMeL]I[NMeA][Aze][NPrPhe(4-CF3)][Sar][hPhe(3-Cl-4-CF3)][Pro(4,4-Me2)][Ac5c][NMeGly(cPent)][NMeD]-Morpholide; lactam N-11) | – | – | – | – | NRAS/KRAS (ratio of KD value with respect to GDP-bound NRAS wild-type protein to KD value with respect to KRAS) ([1]; KD ratio NRAS/KRAS): C (A compound having a KD ratio of 0.1 or more and less than 3 is denoted as C); HRAS/KRAS (ratio of KD value with respect to GDP-bound HRAS wild-type protein to KD value with respect to KRAS) ([2]; KD ratio HRAS/KRAS): C (A compound having a KD ratio of 0.1 or more and less than 3 is denoted as C) |
| CCCN1C(=O)[C@@H]2CCN2C(=O)[C@H](C)N(C)C(=O)[C@H]([C@@H](C)CC)NC(=O)[C@H](CC(C)C)N(C)C(=O)C[C@@H](C(=O)N2CCC(C)(C)C2)N(C)C(=O)[C@H](C2CCCC2)N(C)C(=O)C2(CCCC2)NC(=O)[C@@H]2CCCN2C(=O)[C@H](CCc2ccc(C(F)(F)F)c(Cl)c2)NC(=O)CN(C)C(=O)[C@@H]1Cc1ccc(C(F)(F)F)cc1 [PP0186] ([NMeL]I[NMeA][Aze][NPrPhe(4-CF3)][Sar][hPhe(3-Cl-4-CF3)]P[Ac5c][NMeGly(cPent)][NMeD]-X25; lactam N-11) | – | – | – | – | NRAS/KRAS (ratio of KD for GDP-bound NRAS wild-type to KD for KRAS) ([1]; KD ratio NRAS/KRAS): C (A compound having a KD ratio of 0.1 or more and less than 3 is denoted as C); HRAS/KRAS (ratio of KD for GDP-bound HRAS wild-type to KD for KRAS) ([2]; KD ratio HRAS/KRAS): B (a compound having 3 or more and less than 10 is denoted as B) |
| CCC[C@H]1C(=O)N[C@@H](C2CCCC2)C(=O)N(C)CC(=O)N(C)[C@H]2C/C=C\CCN(C2=O)[C@@H](Cc2ccc(C)cc2)C(=O)N(C)CC(=O)N[C@@H](CCc2ccc(C(F)(F)F)c(OC)c2)C(=O)N2CC3(CC3)C[C@H]2C(=O)NC2(CC(C)(C)C2)C(=O)N(C)[C@@H](C2CCCC2)C(=O)N(C)[C@H](C(=O)N(C)C)CC(=O)N1C [PP2994] | AA (a compound having 20 or more is denoted as AA) | A (a compound having 10 or more and less than 20 is denoted as A) | – | – | – |
| CCO[C@@H]1C[C@H]2C(=O)NC3(CC(C)(C)C3)C(=O)N(C)[C@@H](C3CCCC3)C(=O)N(C)[C@H](C(=O)N(C)CC)CC(=O)N(C)[C@@H](CC(F)F)C(=O)N[C@@H]([C@@H](C)CC)C(=O)N(C)CC(=O)N(C)[C@H]3C/C=C\CCN(C3=O)[C@@H](Cc3ccc(C(F)(F)F)cc3)C(=O)N(C)CC(=O)N[C@@H](CCc3cc(F)c(C(F)(F)F)c(F)c3)C(=O)N2C1 [PP1643] | – | – | A (a compound having 10 or more and less than 20 is denoted as A) | A (a compound having 10 or more and less than 20 is denoted as A) | – |
| CCCN(C)C(=O)[C@@H]1CC(=O)N(C)[C@@H](CCOC)C(=O)N[C@@H]([C@@H](C)CC)C(=O)N(C)CC(=O)N(C)[C@H]2C/C=C\CCN(C2=O)[C@@H](Cc2ccc(C(F)(F)F)cc2)C(=O)N(C)CC(=O)N[C@@H](CCc2ccc(C(F)(F)F)c(OC)c2)C(=O)N2C[C@H](OCC)C[C@H]2C(=O)NC2(CC(C)(C)C2)C(=O)N(C)[C@@H](C2CCCC2)C(=O)N1C [PP1975] | – | – | A (a compound having 10 or more and less than 20 is denoted as A) | A (a compound having 10 or more and less than 20 is denoted as A) | – |
